Literature values as cited in patent US20260207623A1, “USE OF ESTETROL IN HEPATICALLY IMPAIRED PATIENTS” (ESTETRA SRL, priority 2022, published 2026).
Like-named read-outs stand apart in the source and are kept apart here.

Conditions: cited from earlier work

C[C@]12CC[C@@H]3c4ccc(O)cc4CC[C@H]3[C@@H]1[C@@H](O)[C@@H](O)[C@@H]2O [E4, 1,3,5 (10)-estratrien-3,15alpha, 16alpha, 17beta-tetrol]
dose up to which well tolerated and safe (given as a single dose): up to 100 mg
dose up to which well tolerated and safe (given once daily for 28 days): up to 40 mg
